We go through two compounds from patent US4513001A, “β-Adrenergic 1-[1-benzimidazolyl]-N-[2-(4-hydroxy-3-methoxy-phenyl)-2-hydroxy-ethyl]- 3-amino butane and salts and hydrates thereof” (priority 1982, dated 1985).

Like-named read-outs stand apart in the source and are kept apart here.

In general, LD50 refers to the dose at which mortality reaches 50%.

A short description of series [1]: Acute toxicity in the mouse, intravenous. The note with it: in vivo. From the text:
These two compounds were the subject of an acute toxicity study in the mouse.
The two compounds had similar toxicity and the pharmacological study was able, indifferently, to be carried out with one or the other, the results being, in the two cases, expressed by weight of base per kg of body weight for the in vivo tests and in molar concentration for the in vitro tests.

Series [2] has as its system uterine horn. The series can be described thus: Uterus relaxing activity in vivo (ocytocine-induced contractions). The following applies: rat, i.v.; compound A 16.8 μg/kg vs salbutamol 24.9 μg/kg. How it is done: The test was carried out also in the rat.
The aminal was anesthesied by ethyl carbamate.
The contractions caused in an exposed uterine horn immersed in a nutrient bath were recorded (bath: RINGER-LOCKE modified by GADDUM and VOGT). These contractions were induced by the intravenous injection of ocytocine, at the dose of 0.1 IU per kg.
After a control recording of the effects of the latter, the compound A or the Salbutamol were administered intravenously and the further ocytocine injection was carried out; its effect was compared with that of the control reaction.

The test system of series [3] is heart rate. The series can be described thus: β-stimulant specificity: heart rate of the anesthetised dog, antagonism of compound A tachycardia by acebutolol. The format is in vivo. The text has this: The results below are the averages of the values obtained in 3 dogs.
Series [4] concerns heart rate. The series can be described thus: Heart rate of the un-anesthetised dog, oral. The class given is in vivo, Beagle dog.
The mark [5] stands for this setting: T0 + 1 min, perfusion compound A 4.2 μg/kg/min, T0: 157.
Where [6] appears, read: T1 + 4 h 1 min, second perfusion compound A after acebutolol.
Setting [7] is: T1 + 4 h 2 min, second perfusion compound A after acebutolol.
[8] abbreviates: T1 + 4 h 4 min, second perfusion compound A after acebutolol.
Where [9] appears, read: T1 + 4 h 6 min, second perfusion compound A after acebutolol.

Regarding `COc1cc(C(O)CNC(C)CCn2cnc3ccccc32)ccc1O` (stereo not drawn) [Compound A, 1-[1-benzimidazolyl]-N-[2-(4-hydroxy-3-methoxy-phenyl)2-hydroxy-ethyl]3-amino butane basic sulphate, dihydrate], the LD50 in series [1] (as base, confidence limits printed, read-out: LD50 expressed as base) came to 96 mg/kg; in series [1] (by weight of product, confidence limits p=0.05 printed, read-out: LD50), 114 mg/kg. Further, in series [2], the “Inhibiting activity on ocytocine-induced uterine contractions (comparison with Salbutamol)” value is recorded as “inhibiting activity comparable with that of salbutamol”. The Heart rate worked out at 180 beats/min in series [3] (setting [5]); 197 beats/min in series [3] (T0 + 2 min, perfusion compound A, T0: 157); 202 beats/min in series [3] (T0 + 4 min, perfusion compound A, T0: 157); 205 beats/min in series [3] (T0 + 6 min = T1, perfusion compound A, T0: 157); 146 beats/min in series [3] (setting [6]); 155 beats/min in series [3] (setting [7]). Moreover, the Heart rate in series [3] (setting [8]) and in series [3] (setting [9]) was 160 beats/min each time. Further, the Heart rate variation entry in series [3] (setting [5]) was “+23”; in series [3] (T0 + 2 min, perfusion compound A), “+40”; in series [3] (T0 + 4 min, perfusion compound A), “+45”; in series [3] (T0 + 6 min = T1, perfusion compound A) it was “+48”; in series [3] (setting [6]) it was -11; in series [3] (setting [7]) it was -2. Further, the Heart rate variation result in series [3] (setting [8]) and in series [3] (setting [9]) was “+3” in each case.
As for `CC(C)(C)NCC(O)c1ccc(O)c(CO)c1` (stereo not drawn) [Salbutamol, reference compound], the “Heart rate, average” value is on record as 142 in series [4] (25 μg base/kg, 15 min, time 0: 92, 12 dogs); 165 in series [4] (25 μg base/kg, 30 min, time 0: 92); 170 in series [4] (25 μg base/kg, 1 h, time 0: 92); 156 in series [4] (25 μg base/kg, 2 h, time 0: 92); 137 in series [4] (25 μg base/kg, 3 h, time 0: 92); 130 in series [4] (25 μg base/kg, 4 h, time 0: 92). In addition, the “Heart rate, average” value in series [4] (25 μg base/kg, 5 h, time 0: 92) is given as 120; in series [4] (83 μg base/kg, 15 min, time 0: 90, 12 dogs) it was 163; in series [4] (83 μg base/kg, 30 min, time 0: 90) it was 194; in series [4] (83 μg base/kg, 1 h, time 0: 90) it was 197; in series [4] (83 μg base/kg, 2 h, time 0: 90) it was 195; in series [4] (83 μg base/kg, 3 h, time 0: 90), 172. The “Heart rate, average” value is listed as 150 in series [4] (83 μg base/kg, 4 h, time 0: 90); 148 in series [4] (83 μg base/kg, 5 h, time 0: 90); 141 in series [4] (83 μg base/kg, 6 h, time 0: 90); 138 in series [4] (83 μg base/kg, 7 h, time 0: 90). Further, the “Tachycardiac activity (comparison with Salbutamol)” value in series [4] (un-anesthetised dog, in words) was “more active than compound B: the effect of the low dose of Salbutamol is equal to that of the high dose of compound B”.
